Source: US8338422B2, “Indolin-2-ones and aza-indolin-2-ones” (Janssen Pharmaceutica NV, priority 2007, dated 2012)

Experiments:
Assay type in all cases: biochemical
[1] = biological target: CDK1/CyclinB (h) (Homo sapiens, UniProt P06493); assay: CDK1/CyclinB human kinase assay (FRET); settings: for IC50: read-out: CDK1 pIC50 (converted)
Protocol: (§1) The in vitro inhibition of a panel of kinases was assessed using either the scintillation proximity assay (SPA) as described by Cook, N. D. et al., Advances in Experimental Medicine and Biology (1991), 36; p. 525-528; or the Fluorescence Resonance Energy Transfer (FRET) technology as described by Rodems, S. M. et al., Assay Drug Develop. Technol. (2002), 1; p. 9-19.
In the FRET technology the activity of the kinase of interest is measured using an appropriate substrate that is labeled with two fluorophores (coumarin and fluorescein). Phosphorylation is determined using a developing reagent comprising a protease that recognizes and cleaves nonphosphorylated peptides. Cleavage will disturb the FRET between the fluorescein and coumarin on the peptide. Uncleaved, phosphorylated peptides maintain the FRET signal. A ratiometric readout of the donor emission over the acceptor emission quantitates the reaction process.
(§2) All kinases are pre-diluted to a 10× working concentration prior to addition into the assay. The composition of the dilution buffer for each kinase is detailed below.
In a final reaction volume of 10 μl, CDK1/CyclinB (h) (0.2 μg/ml) is incubated with 50 mM Hepes pH 7.5, 10 mM MgCl2, 1 mM EGTA, 0.01% Brij-35, 2 μM Z'lyte Ser/Thr peptide 12 and 10 μM ATP (Invitrogen's FRET assay). After incubation of 60 minutes at room temperature, the reaction is stopped by addition of 5 μL development reagent containing protease mix. After 60 minutes room temperature the development reaction is stopped by adding 5 μl stop solution. The plate is then read in fluorescence plate reader with excitation: 390 nm and dual emission: 460 and 538 nm. Emission ratio is determined to the formula=Emission signal intensity at 460 nm/Emission signal intensity at 538 nm.

[2] = biological target: AuroraB (h) (Homo sapiens, UniProt Q96GD4); assay: Aurora-B human kinase assay (SPA); settings: for IC50: read-out: AuroraB pIC50 (converted)
AuroraB (h), sequence (Q96GD4 whole entry): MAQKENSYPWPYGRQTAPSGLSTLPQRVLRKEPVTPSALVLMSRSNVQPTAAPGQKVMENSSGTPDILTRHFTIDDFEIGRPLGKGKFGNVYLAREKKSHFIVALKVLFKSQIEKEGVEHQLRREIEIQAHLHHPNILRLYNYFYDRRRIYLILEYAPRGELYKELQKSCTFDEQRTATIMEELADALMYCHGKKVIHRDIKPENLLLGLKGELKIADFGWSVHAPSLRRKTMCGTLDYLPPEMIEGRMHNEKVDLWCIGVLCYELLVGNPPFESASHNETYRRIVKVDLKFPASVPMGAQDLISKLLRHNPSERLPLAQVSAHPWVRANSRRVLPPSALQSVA
Protocol: as §1
(§3) In the SPA technology the activity of the kinase of interest is measured using an appropriate biotinylated substrate that is incubated with the aforementioned kinase protein in the presence of (^33P) radiolabeled ATP. (^33P) Phosporylation of the substrate is subsequently measured through binding of the phosphorylated substrate to streptavidine coated beads that are based on the scintillant poly(vinyl toluene) (PVT-Beads). The scintillation intensity is detected by imaging on Leadseeker.
as §2
In a final reaction volume of 30 μl, AuroraB (h) (0.5 μg/ml) is incubated with 60 mM Hepes pH 7.5, 3 mM MgCl2, 3 mM MnCl2, 3 μM Na3VO4, 0.05 mg/ml PEG, 2 mM DTT, 3 μM Biotin-[…]-OH, 0.5 μM ATP and 2.2 nM [γ-^33P-ATP] (6.8 μCi/ml). After incubation of 60 minutes at room temperature, the reaction is stopped by addition of 40 μL of stop solution containing 8.7 mM EDTA, BSA 0.17%, 0.17% Triton X-100, 5 mg/ml SPA beads (GE-healthcare). The plate is centriguged and read for Scintillation imaging on Leadseeker.

[3] = biological target: GSK3β (h) (Homo sapiens, UniProt P49841); assay: GSK-3β human kinase assay (SPA); settings: for IC50: read-out: GSK3B pIC50 (converted)
GSK3β (h), sequence (P49841 whole entry): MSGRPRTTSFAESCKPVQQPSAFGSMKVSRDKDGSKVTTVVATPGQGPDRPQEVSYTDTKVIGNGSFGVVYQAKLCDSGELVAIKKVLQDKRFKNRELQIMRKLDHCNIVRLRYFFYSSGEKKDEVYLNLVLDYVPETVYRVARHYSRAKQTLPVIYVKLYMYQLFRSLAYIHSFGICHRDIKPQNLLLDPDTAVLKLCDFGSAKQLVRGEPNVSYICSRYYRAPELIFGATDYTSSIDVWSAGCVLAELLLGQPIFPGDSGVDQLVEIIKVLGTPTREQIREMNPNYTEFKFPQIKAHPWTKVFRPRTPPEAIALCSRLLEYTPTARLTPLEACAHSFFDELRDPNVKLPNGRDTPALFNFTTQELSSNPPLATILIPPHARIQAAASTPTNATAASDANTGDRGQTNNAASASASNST
Protocol: as §1, §3, §2
In a final reaction volume of 30 μl, GSK3β (h) (1 μg/ml) is incubated with 25 mM Tris pH 7.4, 10 mM MgCl2, 1 mM DTT, 1 μM peptide Biotin-KRREILSRRPSYR-OH, 1 μM ATP and 2 nM [γ-^33P-ATP] (6.0 μCi/ml). After incubation of 60 minutes at room temperature, the reaction is stopped by addition of […] of stop solution containing 8.7 mM EDTA, BSA 0.17%, 0.17% Triton X-100, 6.25 mg/ml SPA beads (GE-healthcare). The plate is centriguged and read for Scintillation imaging on Leadseeker.

[4] = biological target: PLK4 (h) (Homo sapiens, UniProt O00444); assay: PLK-4 human kinase assay (SPA); settings: for IC50: read-out: PLK4 pIC50 (converted)
PLK4 (h), sequence (O00444 whole entry): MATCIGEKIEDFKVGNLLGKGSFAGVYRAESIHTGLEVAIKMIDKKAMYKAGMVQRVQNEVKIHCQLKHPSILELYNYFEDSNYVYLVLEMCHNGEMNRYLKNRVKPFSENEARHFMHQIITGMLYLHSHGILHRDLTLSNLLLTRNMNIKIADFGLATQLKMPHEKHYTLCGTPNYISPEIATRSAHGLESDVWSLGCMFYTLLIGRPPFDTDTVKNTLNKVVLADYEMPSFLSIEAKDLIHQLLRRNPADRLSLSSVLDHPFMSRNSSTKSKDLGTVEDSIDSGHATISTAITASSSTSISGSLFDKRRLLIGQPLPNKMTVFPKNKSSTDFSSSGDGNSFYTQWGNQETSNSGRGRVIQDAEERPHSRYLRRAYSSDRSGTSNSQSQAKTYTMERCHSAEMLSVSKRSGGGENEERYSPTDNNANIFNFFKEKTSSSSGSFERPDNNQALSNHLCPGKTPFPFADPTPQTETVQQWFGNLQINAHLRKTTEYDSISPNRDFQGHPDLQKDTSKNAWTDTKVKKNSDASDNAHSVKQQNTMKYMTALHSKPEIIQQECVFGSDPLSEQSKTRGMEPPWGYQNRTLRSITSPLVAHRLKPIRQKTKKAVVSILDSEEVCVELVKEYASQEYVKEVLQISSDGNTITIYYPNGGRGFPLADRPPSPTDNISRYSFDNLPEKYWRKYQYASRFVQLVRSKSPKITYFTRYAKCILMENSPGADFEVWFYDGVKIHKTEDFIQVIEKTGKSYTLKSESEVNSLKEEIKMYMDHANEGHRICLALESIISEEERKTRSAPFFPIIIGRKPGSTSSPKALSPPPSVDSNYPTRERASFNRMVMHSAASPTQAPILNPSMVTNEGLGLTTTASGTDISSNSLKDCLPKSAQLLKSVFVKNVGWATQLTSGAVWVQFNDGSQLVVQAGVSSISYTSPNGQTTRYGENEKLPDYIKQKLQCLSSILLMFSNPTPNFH
Protocol: as §1, §3, §2
In a final reaction volume of 30 μl PLK4 (h) (19 μg/ml) is incubated with 50 mM Hepes pH 8.0, 10 mM MgCl2, 50 mM NaCl, 1 mM NaF, 1 mM DTT, 10 μM of peptide Biotin-RPRGQRDSSYYWE-OH, 1 μM ATP and 2 nM [γ-^33P-ATP] (6.0 μCi/ml). After incubation of 60 minutes at room temperature, the reaction is stopped by addition of 40 μl, of stop solution containing 8.7 mM EDTA, BSA 0.17%, 0.17% Triton X-100, 1.7 mg/ml SPA beads (GE-healthcare). The plate is centriguged and read for Scintillation imaging on Leadseeker.

CDK1/CyclinB (h), sequence (P06493 whole entry): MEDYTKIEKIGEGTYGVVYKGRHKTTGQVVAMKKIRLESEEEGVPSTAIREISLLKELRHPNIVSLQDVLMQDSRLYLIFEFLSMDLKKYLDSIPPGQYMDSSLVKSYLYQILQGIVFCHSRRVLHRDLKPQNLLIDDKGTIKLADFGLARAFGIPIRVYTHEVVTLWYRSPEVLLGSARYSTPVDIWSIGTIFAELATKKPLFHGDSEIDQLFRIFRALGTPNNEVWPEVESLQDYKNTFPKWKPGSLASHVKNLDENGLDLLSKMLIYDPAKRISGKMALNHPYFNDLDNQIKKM
CDK1/CyclinB (h), sequence (P14635 whole entry partner): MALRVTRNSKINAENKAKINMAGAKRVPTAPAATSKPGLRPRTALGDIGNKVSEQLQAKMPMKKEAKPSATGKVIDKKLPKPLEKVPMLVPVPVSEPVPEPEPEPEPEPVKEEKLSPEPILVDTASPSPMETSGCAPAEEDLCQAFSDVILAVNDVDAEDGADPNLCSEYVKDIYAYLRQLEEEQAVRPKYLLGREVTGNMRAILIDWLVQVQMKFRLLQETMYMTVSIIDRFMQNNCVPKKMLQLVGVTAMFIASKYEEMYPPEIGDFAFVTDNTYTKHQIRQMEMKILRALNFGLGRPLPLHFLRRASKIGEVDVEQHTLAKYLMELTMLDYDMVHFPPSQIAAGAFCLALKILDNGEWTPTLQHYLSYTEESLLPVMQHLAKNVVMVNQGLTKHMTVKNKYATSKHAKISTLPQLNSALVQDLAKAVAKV

Compound CN1CCCCCC(=O)N(C)CCNc2ncnc3c2/C(=C/Nc2ccc(N4CCOCC4)c(c2)C1)C(=O)N3 [Compound 131] has an IC50 [1] greater than 10 µM, an IC50 [2] greater than 10 µM and an IC50 [3] of 6.38 µM. The IC50 [4] was 0.452 µM.
N#Cc1ccc2cc1OCCCC(=O)N1CCN(CC1)c1ncnc3c1/C(=C/N2)C(=O)N3 [Compound 98] was tested, and the IC50 [1] was greater than 10 µM, the IC50 [2] was greater than 10 µM and the IC50 [3] was 0.776 µM. For the same compound, the IC50 [4] was greater than 10 µM.
For CN1CCNc2ncnc3c2/C(=C/Nc2ccc(Cl)c(c2)OCCCCCCC1=O)C(=O)N3 [Compound 78], the IC50 [1] was greater than 10 µM, the IC50 [2] was 7.59 µM and the IC50 [3] was 2.19 µM. For the same compound, the IC50 [4] was greater than 10 µM.
N#Cc1ccc2cc1OCCCCC(=O)N1CCN(CC1)c1ncnc3c1/C(=C/N2)C(=O)N3 [Compound 26] showed an IC50 [1] greater than 10 µM, an IC50 [2] greater than 10 µM and an IC50 [3] of 2.63 µM. For the same compound, the IC50 [4] was greater than 10 µM.
CN1CCCCC(=O)N(C)CCNc2ncnc3c2/C(=C/Nc2cccc(c2)C1)C(=O)N3 [Compound 79] was tested, and the IC50 [1] was 8.91 µM, the IC50 [2] was 9.12 µM and the IC50 [3] was 0.813 µM. For the same compound, the IC50 [4] was 3.31 µM.
COc1ccc2cc1CN(C)CCCCC(=O)N(C)CCCNc1ncnc3c1/C(=C/N2)C(=O)N3 [Compound 67] showed an IC50 [1] of 0.603 µM, an IC50 [2] greater than 10 µM and an IC50 [3] of 0.178 µM. The IC50 [4] was 5.62 µM.
For CN1CCNc2ncnc3c2/C(=C/Nc2cccc(c2)OCCCCCCC1=O)C(=O)N3 [Compound 59], the IC50 [1] was greater than 10 µM, the IC50 [2] was 5.13 µM and the IC50 [3] was 1.05 µM. The IC50 [4] was 4.37 µM.
With COc1ccc2cc1CN(C)CCCCC(=O)N(C)CCCN(C)c1ncnc3c1C(=CN2)C(=O)N3 (mixture of isomers) [Compound 87] the “CDK1 pIC50” value [1] was less than 5, the “AuroraB pIC50” value [2] was less than 5 and the “GSK3B pIC50” value [3] was 6.17. For the same compound, the “PLK4 pIC50” value [4] was less than 5.
In the case of COc1cc2cc(c1OC)CN(C)CCCC(=O)N(C)CCCNc1ncnc3c1/C(=C/N2)C(=O)N3 [Compound 6], the IC50 [1] was roughly 10 µM, the IC50 [2] was greater than 10 µM and the IC50 [3] was greater than 10 µM. It also gave an IC50 [4] of 6.17 µM.
In the case of CN1CCNc2ncnc3c2/C(=C/Nc2cc(cc(C(F)(F)F)c2)OCCCC1=O)C(=O)N3 [Compound 127], the IC50 [1] was greater than 10 µM, the IC50 [2] was greater than 10 µM and the IC50 [3] was greater than 10 µM. It also gave an IC50 [4] greater than 10 µM.
With CN1CCCN(C)c2ncnc3c2C(=CNc2ccc(Cl)c(c2)OCCCC1=O)C(=O)N3 (mixture of isomers) [Compound 86] the “CDK1 pIC50” value [1] was less than 5, the “AuroraB pIC50” value [2] was 5.47 and the “GSK3B pIC50” value [3] was 6.42. The “PLK4 pIC50” value [4] was 5.9.
With CCN1CCCCCC(=O)N2CCN(CC2)c2cccc3c2C(=CNc2cccc(c2)S(=O)(=O)N(C)CC1=O)C(=O)N3 (mixture of isomers) [Compound 1] the IC50 [1] was greater than 10 µM, the IC50 [2] was greater than 10 µM and the IC50 [3] was 1.82 µM. For the same compound, the IC50 [4] was 6.92 µM.
CN1CCCC(=O)N(C)CCCN(C)c2ncnc3c2/C(=C/Nc2ccc(Cl)c(c2)C1)C(=O)N3 [Compound 90] showed an IC50 [1] greater than 10 µM, an IC50 [2] greater than 10 µM and an IC50 [3] of 0.617 µM. For the same compound, the IC50 [4] was 5.5 µM.
For COc1ccc2cc1OCCCCCCC(=O)N(C)CCNc1ncnc3c1C(=CN2)C(=O)N3 (mixture of isomers) [Compound 76], the “CDK1 pIC50” value [1] was less than 5, the “AuroraB pIC50” value [2] was 6.28 and the “GSK3B pIC50” value [3] was 6.54. For the same compound, the “PLK4 pIC50” value [4] was 5.72.
CN1CCNc2ncnc3c2/C(=C/Nc2cc(cc(C(F)(F)F)c2)OCCCCC1=O)C(=O)N3 [Compound 128] was tested, and the IC50 [1] was greater than 10 µM, the IC50 [2] was greater than 10 µM and the IC50 [3] was greater than 10 µM. The IC50 [4] was greater than 10 µM.
In the case of CN1CCC(=O)NCC#Cc2cccc3c2/C(=C/Nc2cccc(c2)S(=O)(=O)N(C)CC1=O)C(=O)N3 [Compound 21], the IC50 [1] was greater than 10 µM, the IC50 [2] was greater than 10 µM and the IC50 [3] was 4.68 µM. The IC50 [4] was 1.86 µM.
